# Results: patent US11433087B2, “Anti-tumor compound with high CD169 affinity, method thereof, and use thereof” (Xiamen Nuokangde Biological Technology Co., Ltd., priority 2017, dated 2022)
# Key:
# [1] = tested on: B16F10 cells; experiment: Anti-tumor effects in tumor-bearing mice injected with the compound; format: in vivo, mice B6 (C57BL/6); conditions: subcutaneous B16F10 in C57BL/6 mice; tail vein injection of 100 mL PBS, 100 μmol, every two days, 15 days; versus 100 μmol natural sialic acid; FIG. 6-9
# Method: Culturing B16F10 cells in a 10 cm cell culture dish to a density of 80%;
# Digesting with 2 mL tyrisin for 90 seconds, neutralizing with 2 mL medium, centrifuging under 300 g for 3 minutes, rinsing with PBS repeatedly, centrifuging once to remove any remaining medium, and adding PBS to resuspend and count an amount of the B16F10 cells;
# Injecting subcutaneously 1 million of the B16F10 cells into mice B6 (C57BL/6) for tumor planting, and then injecting […] PBS comprising the anti-tumor compound of the present disclosure with a concentration of 100 μmol from a tail vein of mice every two days as an experimental group 1;
# Injecting PBS of the same volume comprising 100 μmol natural sialic acid as a control group 1, and the other conditions of the control group 1 are the same as the experimental group 1; and
# After 15 days, removing hair from tumor areas of the mice, taking pictures (as shown in FIG. 6 and FIG. 7), taking out tumors from the mice, and taking pictures for analysis.
# [2] = tested on: B16F10 cells; experiment: Phagocytic effects of macrophages (BMDM) on tumor cells, lactate dehydrogenase cytotoxicity test kit; format: cell-based, mouse; conditions: BMDM and B16F10 cells 5:1; compared with control group medium added with Neu5Ac; FIG. 5
# Method: Taking out bone marrow of 10 week old mice, adding with a solution of potassium ammonium chloride (ACK), and then culturing cells of the bone marrow in an Iscove's modified dulbecco medium (IMDM) comprising 10% (volume ratio) fetal bovine serum (FBS) and 10 ng/mL macrophage […] stimulating factor to obtain bone marrow derived macrophages (BMDM). Culturing BMDM and B16F10 cells of a ratio of 5:1 respectively in an experimental group medium and a control group medium. Adding TCC-Neu5Ac to the experimental group medium, adding Neu5Ac of the same volume to the control group medium, detecting by Lactate dehydrogenase cytotoxicity test kit, selecting a 490 nm absorption peak in a microplate reader, and converting to phagocytic killing efficiency.
# [3] = tested on: B16F10 cells; experiment: Tumor metastasis analysis model in mice; format: in vivo, B6 mice (C57BL/6); conditions: B16F10 injected from tail veins in C57BL/6 mice; 200 μL, 100 μmol, tail vein every two days, 15 days; versus 100 μmol natural sialic acid (Neu5Ac); FIG. 14
# Method: Culturing B16F10 cells in a 10 cm cell culture dish to a density of 80%, digesting with 2 mL tyrisin for 90 seconds, neutralizing with 2 mL medium, centrifuging under 300 g for 3 minutes, rinsing with PBS repeatedly, centrifuging once to remove any residual medium, and adding PBS to resuspend and count an amount of the B16F10 cells.
# Injecting 1 million of the B16F10 cells into B6 mice (C57BL/6) from tail veins for preparing a tumor metastasis analysis model. Then, injecting 200 μL of an aqueous solution comprising the 100 μmol of the anti-tumor compound with high CD169 affinity of the present disclosure every two days from tail veins as an experimental group 3, and injecting water solution with the same volume comprising 100 μmol of natural sialic acid (Neu5Ac) as a control group 3. After 15 days, removing hair from tumor areas of the B6 mice and taking pictures. Then, taking out tumors from the B6 mice and taking pictures for analysis. An ordinate position of a black solid circle indicates a number of the tumors transferred to lungs of a mouse of the experimental group 3. An ordinate position of one black solid square indicates a number of the tumors transferred to lungs of a mouse of the control group 3. It can be seen from FIG. 14 that the number of the tumors transferred to the lungs in the experimental group 3 is far lower than that in the control group 3. […]
# [4] = tested on: human malignant glioma cells (U87); experiment: Toxicity in cells (counting dead cells, cell survival rate); format: cell-based; conditions: U87, different concentrations 0-100 μmol, 24 hours; FIG. 4
# Method: Culturing human malignant glioma cells (U87) in the constant temperature incubator containing 5% CO2 at 37° C., and a seventh medium of the human malignant glioma cells is DMEM containing 10% fetal bovine serum;
# Transferring the human malignant glioma cells to a confocal cell culture dish, culturing to a density of 50%, removing the seventh medium, adding an eighth medium comprising TCC-Neu5Ac of different concentrations from 0 to 100 μmol (100 μM), and further culturing for 24 hours; and
# Removing the eighth medium comprising TCC-Neu5Ac, washing carefully with PBS for three times, adding a ninth medium, and counting dead cells of the human malignant glioma cells.
# Counting results of the dead cells are shown in FIG. 4, wherein abscissa represents different concentrations of TCC Neu5Ac in the eight medium, and ordinate represents a cell survival rate of the human malignant glioma cells. […] Therefore, the anti-tumor compound with high CD169 affinity of the present disclosure has extremely low toxicity in the cells and has potential ability for human tumor treatment.
# [5] = tested on: B16F10 cells; experiment: Anti-tumor effects in tumor-bearing mice orally administrated with the compound; format: in vivo, B6 mice (C57BL/6); conditions: subcutaneous B16F10 in C57BL/6 mice; oral 200 μL aqueous solution, 100 μmol, daily, 15 days; versus natural sialic acid; FIG. 10-13
# Method: Culturing B16F10 cells in a 10 cm cell culture dish to a density of 80%, digesting with 2 mL tyrisin for 90 seconds, neutralizing with 2 mL medium, centrifuging under 300 g for 3 minutes, rinsing with PBS repeatedly, centrifuging once to remove any residual medium, adding PBS to resuspend and count an amount of the B16F10 cells, and injecting subcutaneously 1 million of the B16F10 cells into the of B6 mice (C57BL/6) for tumor planting;
# Feeding 200 μL of an aqueous solution comprising the 100 μmol of the anti-tumor compound with high CD169 affinity of the present disclosure daily as an experimental group 2;
# Feeding water solution with the same volume comprising natural sialic acid as a control group 2; and
# After 15 days, removing hair from tumor areas of the B6 mice, taking pictures, taking out tumors from the B6 mice, and taking pictures for analysis.
structure (smiles),measurement,setting,value
"CC(=O)N[C@@H]1C(O)C[C@](O)(C(=O)O)OC1C(O)C(O)CNC(=O)c1cc2c(s1)-c1ccccc1OC2 (some centres unmarked) [TCC-Neu5Ac, 9-benzopyranothiophene-n-acetylneuraminic acid monosaccharide]",sizes of the tumors,[1],significantly smaller
same,killing rate of phagocytes to tumors,[2],significantly higher
same,number of the tumors transferred to the lungs,[3],far lower
same,cell survival rate of the human malignant glioma cells,[4],does not differ much
same,sizes of the tumors,[5],significantly smaller
